Series [1] relates to A375. Put plainly: Compounds cellular killing (Cell Titer-Glo, 6 days, 2D). The note with it: for cell-killing activity compared with Dxd: A375. Type of series: cell-based, human. The procedure: (§1) The cell line was grown in a humidified 5% CO2 atmosphere at 37° C., and was regularly tested for the presence of mycoplasma with MycoAlert™ PLUS Mycoplasma Detection Kit (Lonza, LT07-710).
(§2) Incubation at 37° C., 5% CO2, overnight.
(§3) Adding the fresh growth-medium containing the varying concentrations of compounds, 50 ul/well.
(§4) Incubation at 37° C., 5% CO2, 6 days.
(§5) The cell viability detected by Cell Titer-Glo (Promega, G7573). Add 70 µL/well of CellTiter-Glo® Reagent in each well.
(§6) Allow the plates to incubate at room temperature for 10 minutes to stabilize luminescent signal.
(§7) Analyze with Microplate Reader.

In series [2] the test system is Calu-6. Described as above. It is filed as cell-based. The note with it: for cell-killing activity compared with Dxd: Calu-6. The procedure:
as §1, §2, §3, §4, §5, §6, §7

For series [3], the system named is HCC1569. As to the kind of experiment: Payload cellular killing, 2D. Type of series: cell-based. Particulars: HCC1569, 2D (HER3 +++).
Series [4] concerns MDA-MB-453. As to the kind of experiment: Payload cellular killing, 2D. Type of series: cell-based, human. The note with it: MDA-MB-453, 2D (HER3 +++). How it is done: as §1
Series [5] addresses cathepsin B (Homo sapiens, UniProt P07858). As to the kind of experiment: Cathepsin B mediated rhodamine release. It is filed as biochemical. Particulars: 150 nM, 0.3 unit activated cathepsin B, pH 5.5, 37° C., FIG. 21. The procedure: CTSB was activated by incubation at ambient temperature for 15 min with 30 mM dithiothreitol and 15 mM EDTA at PH5.5.
Reaction buffer preparation: 25 mM sodium acetate & 1 mM EDTA, PH5.5.
Adding 150 nM NAcCys-13 & NAcCys-14 & NAcCys-15 & NAcCys-16 & NAcCys-17 and 0.3 unit activated cathepsin B mixture according to the experiment template.
The reaction mixtures were incubated at 37° C. immediately in the reader, then start reading using the kinetic set-up described. (TECAN SPARK: excitation/emission: 485/520 nm) (120 cycles, every one min) Gain Manual: 77%
Data analysis by GraphPad Prism 9 is illustrated in FIG. 21.

Series [6] in a line: ADC hydrophobicity evaluation by HIC (retention time of DAR8 species). Particulars: HIC method with isopropanol in the mobile phase (values marked *, Method 1). It is filed as physicochemical. An excerpt: ADC Hydrophobicity Evaluation
ADC with more hydrophobic property would appeared with later retention time from HIC (hydrophobicity interaction column) chromatography. In this invention, […].
The HIC retention time (HIC RT, here only HIC RT of DAR8 species is listed in the table) can be seen as a measure to evaluate ADC's hydrophobicity.

Series [7] deals with A549 (PTK7 low). Put plainly: Cellular killing on PTK7 cell lines (Cell-Titer-Glo, 7 days). Type of series: cell-based. The note with it: Anti-proliferation. The procedure: (§8) The plates were incubated for 7 days at 37° C., 5% CO2. Next, 50 μL of Cell-Titer-Glo reagent was added to each well. The mixture was mixed on an orbital shaker for 10 mins to allow cell lysis. Then, the luminescent signal was measured using BMG PheraStar with the luminescent protocol. The inhibition of Ovcar3 and A549 cell lines is illustrated in FIG. 22 and FIG. 23, respectively.

In series [8] the test system is Ovcar3 (PTK7 high). The series is described as above. It is filed as cell-based. The note with it: Anti-proliferation. How it is done: as §8
Setting [9] is: Table 28, payload, A375, 2D (Her3 ++).
Where [10] appears, read: Table 29, payload, A375, 6d, 2D (Her3++).
Setting [11] is: Table 28, payload, Calu-6, 2D (HER3 neg.).
Setting [12] is: Table 29, payload, Clau6, 6d, 2D (Her3 neg).
The mark [13] stands for this setting: Homo sapiens, Table 28, payload.
Setting [14] is: Homo sapiens, Table 28, payload, read-out: Emax.

Read-outs that look alike come from different tables or passages of the source.

Take `CC[C@@]1(O)C(=O)OCc2c1cc1n(c2=O)Cc2c-1nc1cc(F)c(C)c3c1c2[C@@H](NC(=O)C(C)(F)CO)CC3` (single isomer, unassigned) [Example 68]: the “cell-killing activity compared with Dxd” value in series [1] and in series [2] was “less potent than Dxd” throughout. For the same molecule, the Emax in series [1] (Homo sapiens, A-375, Table 21, A375, read-out: Emax) was determined as 99.9%; in series [2] (Homo sapiens, Calu-6, Table 21, Calu-6, read-out: Emax), 98.5%. For the same molecule, the concentration for a half-maximal effect (EC50) (as a rule, the concentration at which the effect is half-maximal) was 4.5 nM in series [1] (Table 21, A375) and 1.8 nM in series [2] (Table 21, Calu-6).

Consider `CC[C@@]1(O)C(=O)OCc2c1cc1n(c2=O)Cc2c-1nc1cc(F)c(C)c3c1c2[C@@H](NC(=O)C(C)(F)CO)CC3` (single isomer, unassigned) [Example 69], for which the “cell-killing activity compared with Dxd” value in series [1] and in series [2] was “stronger cell-killing activity than Dxd” each time. Further, the EC50 was 1.5 nM in series [1] (Table 21, A375) and 0.6 nM in series [2] (Table 21, Calu-6). Moreover, the Emax in series [1] (Table 21, A375) is 99.9%; in series [2] (Table 21, Calu-6) it was 98.2%.

For the molecule `CC[C@@]1(O)C(=O)OCc2c1cc1n(c2=O)Cc2c-1nc1cc(F)c(C)c3c1c2[C@@H](NC(=O)C(C)(F)CO)CC3` (single isomer, unassigned) [Isomer 1 of Compounds 68 & 69], the Emax in series [1] (Homo sapiens, A-375, Table 29, payload, A375, 6d, 2D (Her3++), read-out: Emax) was 99.9%; in series [2] (Homo sapiens, Calu-6, Table 28, payload, Calu-6, 2D (HER3 neg.), read-out: Emax), 98.5%; in series [2] (Homo sapiens, Calu-6, […], Table 29, payload, Clau6, 6d, 2D (Her3 neg), read-out: Emax) it was 98.5%; in series [3] (Homo sapiens, HCC1569, Table 28, payload, read-out: Emax), 92%; in series [4] (Homo sapiens, MDA-MB-453, Table 28, payload, read-out: Emax), 97.9%. Moreover, the EC50 in series [1] (setting [9]) was 4.5 nM; in series [1] (setting [10]) it was 4.5 nM; in series [2] (setting [11]), 1.8 nM; in series [2] (setting [12]), 1.8 nM; in series [3] (Table 28, payload) it was 3.2 nM; in series [4] (Homo sapiens, MDA-MB-453, Table 28, payload), 2.8 nM.

Take `CC[C@@]1(O)C(=O)OCc2c1cc1n(c2=O)Cc2c-1nc1cc(F)c(C)c3c1c2[C@@H](NC(=O)C(C)(F)CO)CC3` (single isomer, unassigned) [Isomer 2 of Compounds 68 & 69]: the EC50 in series [1] (setting [9]) was determined as 1.5 nM; in series [1] (setting [10]), 1.5 nM; in series [2] (setting [11]), 0.6 nM; in series [2] (setting [12]) it was 0.6 nM; in series [3] (Table 28, payload) it was 0.7 nM; in series [4] (Table 28, payload) it was 1.5 nM. The Emax in series [1] (setting [9]) turned out to be 99.9%; in series [1] (setting [10]) it was 99.9%; in series [2] (setting [11]), 98.2%; in series [2] (setting [12]), 98.2%; in series [3] (Table 28, payload), 91.6%; in series [4] (Table 28, payload) it was 98.6%.

Regarding `CCOC(=O)Nc1ccc2c(c1)Oc1cc(NC(=O)OCc3ccc(NC(=O)[C@H](CCCNC(N)=O)NC(=O)[C@@H](NC(=O)CCOCCOCCOCCN4C(=O)CC(SC[C@H](N)C(=O)O)C4=O)C(C)C)cc3)ccc1C21OC(=O)c2ccccc21` (some centres unmarked) [NAcCys-13, reference compound], the “cathepsin B mediated rhodamine release rate, rank” value in series [5] is given as “NAcCys-15˜NAcCys-13 (benchmark)>NAcCys-14>NAcCys-17”.

`CCOC(=O)Nc1ccc2c(c1)Oc1cc(NC(=O)OCc3ccc(NC(=O)[C@H](CCCNC(N)=O)NC(=O)[C@@H](NC(=O)[C@H](CNS(N)(=O)=O)NC(=O)CCOCCOCCOCCN4C(=O)CC(SC[C@H](NC(C)=O)C(=O)O)C4=O)C(C)C)cc3)ccc1C21OC(=O)c2ccccc21` (some centres unmarked) [NAcCys-14]: in series [5], the “cathepsin B mediated rhodamine release rate, rank” value is recorded as “NAcCys-15˜NAcCys-13 (benchmark)>NAcCys-14>NAcCys-17”.

`CCOC(=O)Nc1ccc2c(c1)Oc1cc(NC(=O)OCc3ccc(NC(=O)[C@H](CCCNC(N)=O)NC(=O)[C@@H](NC(=O)[C@H](CS(=O)(=O)O)NC(=O)CCOCCOCCOCCN4C(=O)CC(SC[C@H](NC(C)=O)C(=O)O)C4=O)C(C)C)cc3)ccc1C21OC(=O)c2ccccc21` (some centres unmarked) [NAcCys-15]: in series [5], the “cathepsin B mediated rhodamine release rate, rank” value is “NAcCys-15˜NAcCys-13 (benchmark)>NAcCys-14>NAcCys-17”.

As for `CCc1c2c(nc3ccc(O)cc13)-c1cc3c(c(=O)n1C2)COC(=O)[C@]3(O)CC` [SN-38, reference compound], the EC50 is 3.4 nM in series [1] (Homo sapiens, A-375, Table 28, payload, A375, 2D (Her3 ++)); 2.9 nM in series [2] (Homo sapiens, Calu-6, Table 28, payload, Calu-6, 2D (HER3 neg.)); 5 nM in series [3] (setting [13]); 2.4 nM in series [4] (setting [13]). Moreover, the Emax in series [1] (Homo sapiens, A-375, Table 28, payload, A375, 2D (Her3 ++), read-out: Emax) was 99.9%; in series [2] (Homo sapiens, Table 28, payload, Calu-6, 2D (HER3 neg.), read-out: Emax), 99.5%; in series [3] (setting [14]) it was 95%; in series [4] (setting [14]) it was 98.6%.

B1: ADC1-4: antibody: Cofetuzumab (conjugate, chains of the INN, looked up)
VH: QVQLVQSGPEVKKPGASVKVSCKASGYTFTDYAVHWVRQAPGKRLEWIGVISTYNDYTYNNQDFKGRVTMTRDTSASTAYMELSRLRSEDTAVYYCARGNSYFYALDYWGQGTSVTVSS
VL: EIVLTQSPATLSLSPGERATLSCRASESVDSYGKSFMHWYQQKPGQAPRLLIYRASNLESGIPARFSGSGSGTDFTLTISSLEPEDFAVYYCQQSNEDPWTFGGGTKLEIK
modifications: drug conjugate
notes: antibody: Cofetuzumab
On to B1, for which the “HIC DAR8 RT” value in series [6] was 14.50* min. Further, the Emax in series [7] was found to be 20.12%; in series [8], 93.45%. The IC50 – broadly, the midpoint of a concentration-inhibition curve – in series [7] was over 200 nM; in series [8], 0.32 nM.

B2: ADC1-2: antibody: Cofetuzumab (conjugate, chains of the INN, looked up)
VH: B1 VH
VL: B1 VL
modifications: drug conjugate
notes: antibody: Cofetuzumab
For the molecule B2, in series [6], the “HIC DAR8 RT” value is given as 14.67* min. Besides, the Emax in series [7] is 34.22%; in series [8], 93.47%. Further, the IC50 in series [7] is over 200 nM; in series [8], 0.23 nM.

B3: ADC1-1: antibody: Cofetuzumab; "ADC Compounds used references" (conjugate, chains of the INN, looked up)
VH: B1 VH
VL: B1 VL
modifications: drug conjugate
On to B3, for which, in series [6], the “HIC DAR8 RT” value is given as 14.56* min. In series [7], the Emax amounted to 38.87% and the IC50 was over 200 nM. Also, in series [8], the Emax was 95.76% and the IC50 was determined as 0.31 nM.

B4: ADC1-12: antibody: Cofetuzumab; "ADC Compounds used references" (conjugate, chains of the INN, looked up)
VH: B1 VH
VL: B1 VL
modifications: drug conjugate
Take B4: the “HIC DAR8 RT” value in series [6] is reported as 13.98* min. In addition, in series [7], the Emax is given as 5.76% and the IC50 was over 200 nM. In series [8], the Emax is on record as 86.04% and the IC50 was 39.4 nM.

B5: ADC1-11: antibody: Cofetuzumab (conjugate, chains of the INN, looked up)
VH: B1 VH
VL: B1 VL
modifications: drug conjugate
notes: antibody: Cofetuzumab
For B5, in series [6], the “HIC DAR8 RT” value was 14.77* min. In series [7], this molecule registered an Emax of 26.44% and a half-inhibitory concentration (IC50) of over 200 nM. In series [8], the Emax was determined as 100.9% and the IC50 came to 2.1 nM.

The values are drawn from patent US20250135026A1, “Antibody Drug Conjugates” (BeiGene Switzerland GmbH, priority 2021, published 2025).
